This note sets out measurements from patent publication US11484601B2, “Targeting M2-like tumor-associated macrophages by using melittin-based proapoptotic peptide” (TWI[…]., priority 2018, dated 2022).

One assay concerns M2 macrophage. As to the kind of experiment: Annexin V-FITC / MitoTracker flow cytometry, M2 macrophage. It is filed as cell-based, mouse. To be noted: 0.8 μM peptide, 6 hours. The procedure:
More specifically, the cells were stained with Annexin V-fluorescein isothiocyanate (FITC; BD Biosciences, CA, USA) and MitoTracker RedBOX (Invitrogen). The cells were inoculated at 5×10^5 cells/well, onto a 24-well plate. The next day, 0.8 μM peptide was applied thereto. In 1, 3 and 6 hours after the application, the cells were reacted with 250 nM MitoTracker for 1 hour in a serum-free culture solution. Thereafter, the cells were collected and reacted with Annexin V again. The reacted cells were measured with BD FACSCalibur, and were analyzed via FlowJo software (Treestar, Inc., CA, USA). MitoTracker could pass through protoplasmic membrane depending on the membrane charge and then accumulated within the mitochondria. In other words, staining may be identified in the mitochondria membrane of living cells, but staining may be difficult in cells where apoptosis occurs due to membrane disturbance.

A further assay has as its system LLC tumor cells. The assay is described as follows: LLC lung cancer tumor model in C57BL/6 mice. Type of assay: in vivo, mouse. To be noted: 175 nmol/kg intraperitoneally. The procedure: More specifically, C57BL/6 wild-type mice were purchased from DBL (Korea). LLC tumor cells were mixed with Matrigel (Corning, NY, USA) and then the mixture was injected into the right flank of mice (5×10^4 cells/mouse). Five days after tumor cell injection, the recombinant dKLA, MEL, and MEL-dKLA peptides were injected intraperitoneally thereto for 3 days for a total of three times (175 nmol/kg dosage/weight per each time). All tumor tissues were harvested 12 days after the injection. The animal experiment was approved by the Animal Management Committee of Kyunghee University [KHUASP(SE)-17-087]. The animals were managed via autonomous feeding of water and food under a 12-hour light/dark cycle environment without pathogens.

In the next assay the test system is 4T1 breast cancer cells. As to the kind of experiment: 4T1 breast cancer model in BALB/c mice, lung nodules and H&E. Type of assay: in vivo, mouse. To be noted: 175 nmol/kg at 3-day intervals; for nodules on the lung surface: 15 days after cancer cell injection. The procedure:
More specifically, 4T1 breast cancer cells (1×10^5) were injected into BALB/c mice. Then, 3 days later, 175 nmol/kg of each of PBS, dKLA, MEL and MEL-dKLA was injected into each group at 3-day intervals. To investigate the level of metastasis and nodules on the lung surface, on 15 days after cancer cell injection, mice were sacrificed and the nodules on the lung surface were identified.
More specifically, for H&E staining, we immersed the tissue in a hematoxylin solution, stained the cell nucleus with a purple color. Then, we removed a remaining-stained portion except for the nucleus with an acidic alcohol solution, and immersed the tissue again in an eosin-added solution to stain the cytoplasm with a pink color. Then, the structure of the cell was observed.

The subject of assay [1] is 4T1-luciferase breast cancer cells. As to the kind of experiment: 4T1-luciferase tail vein metastaticity model in BALB/c mice. Type of assay: in vivo, mouse. The settings on record: 175 nmol/kg once every 3 days, 15 days after tail vein injection. The procedure:
Additionally, 4T1-luciferase breast cancer cells (1×10^5) were injected into BALB/c mice through a tail vein in order to identify metastaticity of tumor cells. 3 days after the injection, 175 nmol/kg of each of PBS, dKLA, MEL and MEL-dKLA was injected into each group once every 3 days. 15 days after the cancer cell injection, D-luciferin as a substrate of luciferase enzyme was diluted to a concentration of 40 mg/ml, and then 100 μl thereof was administered to mice in an intraperitoneal administration mode, Then, reaction occurred for about 15 minutes. NightOwl (Berthold Technologies) was used in combination with photographs of mice to analyze the level of settlement and metastasis of cancer cells to the whole body and lungs.

The next assay has as its system CCL22. As to the kind of experiment: Quantitative real-time PCR of lung tissue, CCL22. It is filed as in vivo, mouse. The settings on record: vs PBS-treated group. The procedure:
(§1) To measure the ability of MEL-dKLA to inhibit tumor metastasis, expression levels of CD44 known to interact with extracellular matrix ligand to promote metastasis and invasion and thus to be widely expressed in cancer, CCL22 known as M2-type macrophage marker, HIF-1α known as a marker of angiogenesis, metastasis and invasion, Ym1 as a marker of M2-type macrophage, and MMP-9 involved in the migration and settlement of tumor cells were measured via quantitative real-time PCR.
(§2) More specifically, RNA was extracted from lung tissue using an easy-BLUE RNA extraction kit (iNtRON Biotechnology, Korea). Then, cDNA was synthesized according to the manual for cyclescript reverse transcriptase (Bioneer, Korea). cDNA synthesis conditions were as follows: 15 seconds at 95, 10 seconds at 55, and 10 seconds at 72. Each reaction was conducted 3 times. […] Quantitative real-time PCR was performed using the SensiFAST SYBR no-Rox kit (Bioline, Korea).

A further assay has as its system HIF-1α. As to the kind of experiment: Quantitative real-time PCR of lung tissue, HIF-1α. Type of assay: in vivo, mouse. The settings on record: vs PBS-treated group. The procedure:
as §1, §2
On the technique in general: In qPCR the cycle at which signal appears reflects the starting amount.

The next assay concerns Ym1. As to the kind of experiment: Quantitative real-time PCR of lung tissue, Ym1. The settings on record: vs PBS-treated group. It is filed as in vivo, mouse. The procedure:
as §1, §2

For a further assay, the system named is MMP-9. As to the kind of experiment: Quantitative real-time PCR of lung tissue, MMP-9. Type of assay: in vivo, mouse. The procedure: as §1, §2

With `CC[C@H](C)[C@H](NC(=O)CN)C(=O)NCC(=O)N[C@@H](C)C(=O)N[C@H](C(=O)N[C@@H](CC(C)C)C(=O)N[C@@H](CCCCN)C(=O)N[C@H](C(=O)N[C@@H](CC(C)C)C(=O)N[C@H](C(=O)N[C@H](C(=O)NCC(=O)N[C@@H](CC(C)C)C(=O)N1CCC[C@H]1C(=O)N[C@@H](C)C(=O)N[C@@H](CC(C)C)C(=O)N[C@H](C(=O)N[C@@H](CO)C(=O)N[C@@H](Cc1c[nH]c2ccccc12)C(=O)N[C@H](C(=O)N[C@@H](CCCCN)C(=O)N[C@@H](CCCNC(=N)N)C(=O)N[C@@H](CCCCN)C(=O)N[C@@H](CCCNC(=N)N)C(=O)N[C@@H](CCC(N)=O)C(=O)N[C@@H](CCC(N)=O)C(N)=O)[C@@H](C)CC)[C@@H](C)CC)[C@@H](C)O)[C@@H](C)O)C(C)C)C(C)C` [MEL], the “cell death of M2 macrophage (Annexin V / MitoTracker)” value in the assay with M2 macrophage is reported as “no significant difference was found”. Besides, the tumor size result with LLC tumor cells is “significantly reduced”. In the assay on 4T1 breast cancer cells, the “metastasis to the lung by H&E staining” value is listed as “relatively smaller metastasis occurred” and the “nodules on the lung surface” value is listed as “no reduction thereof was observed”. Besides, the number of nodules entry with 4T1 breast cancer cells (lungs) was “no significant decrease”. Moreover, the “metastaticity, luminescence of cancer cells throughout the whole body” value in assay [1] was “metastasis was reduced”. For the same molecule, in the assay with CCL22, the “expression of CCL22” value is recorded as “not significantly different”. For the same molecule, in the assay with HIF-1α, the “expression of HIF-1α” value was “not significantly different”. Further, in the assay on Ym1, the “expression of Ym1” value was “no significant difference”. In the assay on MMP-9, the “expression of MMP-9” value is given as “lower compared to that in the PBS-treated group”.

Consider “d[KLAKLAKKLAKLAK] (D-amino acids) [dKLA, pro-apoptotic peptide KLA, used as control]”, for which the “cell death of M2 macrophage (Annexin V / MitoTracker)” value in the assay on M2 macrophage was “no significant difference was found”. Also, the tumor growth result in the assay on LLC tumor cells (three times, compared to PBS control) was “tumor steadily grew”. Also, in the assay with 4T1 breast cancer cells, the “metastasis to the lung by H&E staining” value is “tumor cells were widely spread and metastasis occurred”; the “nodules on the lung surface” value is listed as “no reduction thereof was observed”. The “metastaticity, luminescence of cancer cells throughout the whole body” value in assay [1] is reported as “measured at a high level throughout the body”. Also, the “expression of CCL22” value in the assay with CCL22 was “not significantly different”. Also, in the assay on HIF-1α, the “expression of HIF-1α” value is “not significantly different”. Further, the “expression of Ym1” value with Ym1 is reported as “increased significantly”. For the same molecule, in the assay with MMP-9, the “expression of MMP-9” value was “high”.
